Source: patent publication US8614366B2, “Methods for genetic plant transformation using water-soluble fullerene derivatives” (priority 2009, dated 2013)
Entries after “also recorded” stand apart in the source; their conditions may differ.

How the values were obtained:
[1] = test system: tobacco protoplast cells; assay: Fullerene-enhanced electroporation, GFP expression; assay type: cell-based, Nicotiana tabacum; conditions: tobacco protoplasts, GFP DNA, fluorescence microscope; without fullerene no GFP expression
Procedure: One embodiment of the invention is called fullerene-enhanced electroporation. The method comprises (1) mixing fullerene derivative solution with the DNA of interest, (2) addition of fullerene derivative/DNA solution to plant cells or plant protoplasts, and (3) treatment of the mixture in a Gene Pulser cuvette or similar electroporation apparatus for a few minutes. Suspension was then incubated for 2-3 hours or overnight to allow DNA transfer and gene expression to take place. […] On the left is the light microscope picture showing tobacco protoplast cells after electroporation. […] Experiments to test the fullerene nanoparticles for transformation ability used tobacco protoplasts for transient assays. Sterile suspension cultures (5% w/v) of tobacco (Nicotiana tabacum) were grown in MS basal salts media. Suspension cells were incubated in enzyme solution (0.6 M mannitol, 10 mM MES, 1% Cellulase, 0.2% pectinase) at pH 5.7 in the dark, at 24° C. overnight. After incubation, protoplasts were passed through […] nylon mesh, washed and protoplasts pelleted by centrifugation. Protoplasts were resuspended in the appropriate media required for transformation studies. Electroporation is the process where cells are mixed with a DNA construct and then briefly exposed to pulses of high voltage. […]

[2] = test system: CAMBIA 1302 plasmid; assay: DNA binding by agarose gel electrophoresis (gel mobility); conditions: 50 ng plasmid, 100-300 ng fullerene compound, preincubated 15-30 minutes
Procedure: Each tube was allowed to bind for 15-30 minutes and then place on an agarose gel. […] After running the gel, the bands were visualized using post-staining with commercial SBER SAFE™ 10000× stain.
DNA binding was measured at different fullerene nanoparticle/DNA ratios. The DNA-binding ability of the fullerene test compounds 1, 2, 4, and 6 was examined by direct DNA binding and agarose gel electrophoresis. […] In each case, 50 ng plasmid DNA was preincubated for 30 minutes with 100-300 nG fullerene compound (FIG. 8). The DNA binding titration of plasmid pCAMBIA 1302 with compound 6 was carried with 50 nG pCAMBIA 1302 and various concentrations (93-3000 nG per 10 microL). Results shown in FIG. 8 indicate optimal binding at a concentration of ˜5-6 equivalents fullerene per DNA. FIG. 8 Lane 1: 50 ng of DNA Plasmid DNA only, Lane 2: 50 ng of DNA Plasmid DNA+3000 ng compound 6 (50 equiv), Lane 3: 50 ng of DNA Plasmid DNA+1500 ng compound 6 (25 equiv), Lane 4: 50 ng of DNA Plasmid DNA+750 ng compound 6 (12 equiv), Lane 5: 50 ng of DNA Plasmid DNA+375 ng compound 6 (6 equiv), Lane 6: 50 ng of DNA Plasmid DNA+187 ng compound 6 (3 equiv), Lane 7: 50 ng of DNA Plasmid DNA+93 ng compound 6 (1.5 equiv). Compound 6 stock solution (0.3 mg/mL) was diluted with TE buffer and 10 microL each fullerene dilution was reincubated with plasmid for […] to loading on the gel.

[3] = test system: peanut; conditions: increased from 3.9% with no antioxidant; cited from earlier work

Compound: polyhydroxy-C60 [Compound 1]
- GFP expression after electroporation [1]: gene insertion and GFP expression
- DNA binding (change in gel mobility) [2]: no DNA binding effect; also recorded: no binding to DNA

Compound: N[C@@H](CCC(=O)N[C@@H](CS)C(=O)NCC(=O)O)C(=O)O [glutathione]
- Transformation frequencies [3]: 14.6%

Compound: O=[Se](O)O [selenite]
- Transformation frequencies [3]: 12.4%

Compound: FC4S [Compound 2]
- DNA binding (change in gel mobility) [2]: no DNA binding effect; also recorded: no binding to DNA

Compound: tocopherol
- Transformation frequencies [3]: 10.3%
